# According to publication PMC6273692, “Binding Mode and Selectivity of Steroids towards Glucose-6-phosphate Dehydrogenase from the Pathogen Trypanosoma cruzi” (Molecules, 2016):
# Where two headings read alike, the source gives them in different places.
# Experiments:
# [1] = tested on: human G6PDH; conditions: cited from earlier work; for increase of inhibition of human G6PDH compared to the parental scaffold (EA): vs EA; for IC50: read-out: IC50 (anti-human G6PDH activity)
# [2] = molecular target: TcG6PDH wildtype (Trypanosoma cruzi, UniProt Q1WBU6); assay: Inhibitor assay with wildtype TcG6PDH (NADPH formation at 340 nm); type: biochemical; conditions: for activity at 30 µM: read-out: G6PDH Activity [%] ± SD at 30 µM Compound; for increase of potency towards the parasite enzyme compared to the parental scaffold (EA): vs EA; for inhibition at 30 µM: read-out: inhibition at 30 μM compound
# [3] = tested on: WT TcG6PDH; assay: Kinetic assay of WT TcG6PDH with substrates
# Experimental: G6PDH activity was determined at ~25 °C by monitoring NADPH (ε340 = 6220 M^−1·cm^−1) formation at 340 nm. All assays were performed in buffer B (50 mM Tris pH 7.5, 5 mM MgCl2) in a final reaction volume of 150 µL and started by addition of glucose-6-phosphate (G6P). For WT TcG6PDH, the Michaelis’ constants (KM) and the maximum initial velocity (Vmax) were determined varying reciprocally the substrate (10, 50, 200, 1000 and 5000 µM G6P) and coenzyme (5, 10, 50, 250 and 625 µM NADP^+) concentrations. For the mutants, the kinetic characterization was performed at a fixed saturating concentration of the corresponding co-substrate (i.e., 6 mM G6P and 700 µM NADP^+) and varying concentrations of the substrate (25, 50, 70, 100, 250, 350, 500 and 700 µM NADP^+, and 0.005, 0.025, 0.05, 0.25, 0.65, 1, 2.5 and 5 mM G6P). […] The first 30 s of the reaction were used to calculate initial velocities that were normalized by the corresponding enzyme concentration in the assay. All measurements were performed in triplicate using a Cary 50 Bio spectrophotometer (Agilent Technologies, Santa Clara, CA, USA). The initial rates were determined with the Origin Pro 8.0 software (OriginLab Corporation, Northampton, MA, USA), and the apparent kinetic constants were calculated by nonlinear regression using the GraphPad Prism 5.0 software (GraphPad Inc., San Diego, CA, USA). The data were fitted to the Cleland or Michaelis-Menten equation to obtain the corresponding kinetic parameters.
# [4] = molecular target: G6PDH from T. brucei; conditions: cited from earlier work
# [5] = molecular target: T. cruzi G6PDH (TcG6PDH); conditions: cited from earlier work
# [6] = tested on: African trypanosomes expressing an ectopic copy of L. mexicana G6PDH; conditions: endogenous G6PDH deficient; cited from earlier work
# Chain of TcG6PDH wildtype (Q1WBU6 entry or part of it): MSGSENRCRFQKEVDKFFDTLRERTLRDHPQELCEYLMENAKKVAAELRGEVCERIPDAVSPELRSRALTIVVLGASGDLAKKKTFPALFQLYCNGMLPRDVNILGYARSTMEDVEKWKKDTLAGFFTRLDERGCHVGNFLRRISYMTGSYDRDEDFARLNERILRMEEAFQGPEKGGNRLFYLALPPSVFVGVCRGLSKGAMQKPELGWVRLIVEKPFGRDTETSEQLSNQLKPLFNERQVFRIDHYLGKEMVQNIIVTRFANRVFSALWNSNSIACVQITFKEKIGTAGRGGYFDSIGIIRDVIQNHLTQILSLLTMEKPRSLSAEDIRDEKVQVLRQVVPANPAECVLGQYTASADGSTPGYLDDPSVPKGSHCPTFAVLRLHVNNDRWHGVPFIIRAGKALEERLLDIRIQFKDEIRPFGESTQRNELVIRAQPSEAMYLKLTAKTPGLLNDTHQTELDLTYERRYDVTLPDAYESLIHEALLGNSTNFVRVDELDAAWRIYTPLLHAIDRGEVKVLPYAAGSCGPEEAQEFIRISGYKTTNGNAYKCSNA
smiles,measurement,setting,value
CCNC(=O)N[C@H]1CC[C@@]2(C)C(CCC3C2CC[C@]2(C)C(=O)CCC32)C1 (stereo partly shown) [Compound 1],increase of inhibition of human G6PDH compared to the parental scaffold (EA),[1],~ 10 fold
same,IC50,[2],1.5 µM
same,activity at 30 µM,[2],7 ± 1%
same,increase of potency towards the parasite enzyme compared to the parental scaffold (EA),[2],≤ 2 fold
C[C@]12CC[C@H](NS(N)(=O)=O)CC1CCC1C2CC[C@]2(C)C(=O)CCC12 (stereo partly shown) [Compound 2],increase of inhibition of human G6PDH compared to the parental scaffold (EA),[1],~ 10 fold
same,IC50,[2],2.2 µM
same,activity at 30 µM,[2],9 ± 1%
same,increase of potency towards the parasite enzyme compared to the parental scaffold (EA),[2],≤ 2 fold
C[C@]12CC[C@H](NS(N)(=O)=O)CC1CCC1C2CC[C@@]2(C)C1CC[C@@H]2C(=O)CO (stereo partly shown) [Compound 3],IC50,[1],~2 µM
same,activity at 30 µM,[2],30 ± 2%
same,inhibition at 30 µM,[2],60 to 70%
C[C@]12CC[C@H](O)CC1CCC1C2CC[C@@]2(C)C1CC[C@@H]2C(=O)CO (stereo partly shown) [Compound 4],IC50,[1],~2 µM
same,activity at 30 µM,[2],43 ± 2%
same,inhibition at 30 µM,[2],60 to 70%
"C[C@]12CC[C@H](O)CC1CCC1C2CC[C@]2(C)C(=O)C(Br)CC12 (stereo partly shown) [Compound 16Br-EA, 16-bromo epiandrosterone, reference compound]",activity against human G6PDH relative to TcG6PDH,[1],almost two orders of magnitude less active
"O=C[C@H](O)[C@@H](O)[C@H](O)[C@H](O)COP(=O)(O)O [Compound G6P, glucose-6-phosphate]",Km,"[3]; read-out: KM G6P, apparent, triplicate",77 ± 20 µM
same,kcat,[3]; varying G6P,62 ± 3 s⁻¹
"C[C@]12CC[C@H](O)CC1=CC[C@@H]1[C@@H]2CC[C@]2(C)C(=O)CC[C@@H]12 [DHEA, dehydroepiandrosterone]",Ki,[1],6 to 9 µM
same,Ki,[4],1.7 µM
same,Ki,[5],2.6 to 25 µM
"C[C@]12CC[C@H](O)C[C@@H]1CC[C@@H]1[C@@H]2CC[C@]2(C)C(=O)CC[C@@H]12 [EA, epiandrosterone, reference compound]",Ki,[1],3 µM
same,sensitivity of trypanosomes expressing L. mexicana G6PDH,[6],resistant
same,Ki,[4],0.5 µM
same,IC50,[2],3 ± 0.4 µM
same,activity at 30 µM,[2],12 ± 2%
same,Ki,[5],1 to 5.6 µM
NC(=O)c1ccc[n+]([C@@H]2O[C@H](COP(=O)([O-])OP(=O)(O)OC[C@H]3O[C@@H](n4cnc5c(N)ncnc54)[C@H](OP(=O)(O)O)[C@@H]3O)[C@@H](O)[C@H]2O)c1 [NADP^+],Km,"[3]; read-out: KM NADP^+, apparent, triplicate",16 ± 3 µM
same,kcat,[3]; varying NADP+,52 ± 2 s⁻¹
